Results taken from PubChem BioAssay (NCI).
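Compound exposure: 48 hours, 5 concentrations, 96-well plates. The concentration for full growth arrest is given as TGI.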

Experiments:
Assay in all cases: NCI tumour cell line growth inhibition, 48 h
HL-60(TB) leukemia = test system: HL-60(TB) leukemia
M19-MEL melanoma = test system: M19-MEL melanoma
SNB-78 CNS = test system: SNB-78 CNS
ACHN renal = test system: ACHN renal
KM20L2 colon = test system: KM20L2 colon
786-0 renal = test system: 786-0 renal
SK-OV-3 ovarian = test system: SK-OV-3 ovarian
IGROV1 ovarian = test system: IGROV1 ovarian
SF-539 CNS = test system: SF-539 CNS
DMS 273 small cell lung = test system: DMS 273 small cell lung
UACC-62 melanoma = test system: UACC-62 melanoma
CCRF-CEM leukemia = test system: CCRF-CEM leukemia
COLO 205 colon = test system: COLO 205 colon
NCI-H460 lung = test system: NCI-H460 lung
CAKI-1 renal = test system: CAKI-1 renal
HCC-2998 colon = test system: HCC-2998 colon
MALME-3M melanoma = test system: MALME-3M melanoma
HOP-18 NSCLC = test system: HOP-18 NSCLC
SF-268 CNS = test system: SF-268 CNS
KM12 colon = test system: KM12 colon
SF-295 CNS = test system: SF-295 CNS
SK-MEL-28 melanoma = test system: SK-MEL-28 melanoma
UO-31 renal = test system: UO-31 renal
HOP-62 NSCLC = test system: HOP-62 NSCLC
MOLT-4 leukemia = test system: MOLT-4 leukemia
HT29 colon = test system: HT29 colon
SK-MEL-5 melanoma = test system: SK-MEL-5 melanoma
OVCAR-3 ovarian = test system: OVCAR-3 ovarian
NCI-H522 lung = test system: NCI-H522 lung
NCI-H23 lung = test system: NCI-H23 lung
SK-MEL-2 melanoma = test system: SK-MEL-2 melanoma
DLD-1 colon = test system: DLD-1 colon
LOX IMVI melanoma = test system: LOX IMVI melanoma
A498 renal = test system: A498 renal
SN12C renal = test system: SN12C renal
UACC-257 melanoma = test system: UACC-257 melanoma
RPMI-8226 leukemia = test system: RPMI-8226 leukemia
DMS 114 small cell lung = test system: DMS 114 small cell lung
A549 NSCLC = test system: A549 NSCLC
OVCAR-5 ovarian = test system: OVCAR-5 ovarian
RXF 393 renal = test system: RXF 393 renal
OVCAR-8 ovarian = test system: OVCAR-8 ovarian
TK-10 renal = test system: TK-10 renal
SNB-75 CNS = test system: SNB-75 CNS
HCT-15 colon = test system: HCT-15 colon
HOP-92 NSCLC = test system: HOP-92 NSCLC
SNB-19 CNS = test system: SNB-19 CNS
EKVX NSCLC = test system: EKVX NSCLC
U251 CNS = test system: U251 CNS
K-562 leukemia = test system: K-562 leukemia
NCI-H226 lung = test system: NCI-H226 lung
LXFL 529 NSCLC = test system: LXFL 529 NSCLC
XF 498 CNS = test system: XF 498 CNS
OVCAR-4 ovarian = test system: OVCAR-4 ovarian
SW-620 colon = test system: SW-620 colon
HCT-116 colon = test system: HCT-116 colon
SR leukemia = test system: SR leukemia
M14 melanoma = test system: M14 melanoma

Cc1nc(-n2nc(-c3ccccc3)cc2-c2ccccc2)sc1C(=O)/C=C/c1cccc([N+](=O)[O-])c1
TGI (HL-60(TB) leukemia): 31.3 µM
TGI (M19-MEL melanoma): 30.4 µM
TGI (SNB-78 CNS): > 100 µM
TGI (ACHN renal): > 100 µM
TGI (KM20L2 colon): 40.8 µM
TGI (786-0 renal): 25.3 µM
TGI (SK-OV-3 ovarian): > 100 µM
TGI (IGROV1 ovarian): 92.2 µM
TGI (SF-539 CNS): 22.8 µM
TGI (DMS 273 small cell lung): 83.1 µM
TGI (UACC-62 melanoma): 27.5 µM
TGI (CCRF-CEM leukemia): 44.4 µM
TGI (COLO 205 colon): 30.8 µM
TGI (NCI-H460 lung): 92 µM
TGI (CAKI-1 renal): 49.6 µM
TGI (HCC-2998 colon): 28.8 µM
TGI (MALME-3M melanoma): 41.1 µM
TGI (HOP-18 NSCLC): 24.5 µM
TGI (SF-268 CNS): 31.2 µM
TGI (KM12 colon): 11.4 µM
TGI (SF-295 CNS): 43.1 µM
TGI (SK-MEL-28 melanoma): 34.1 µM
TGI (UO-31 renal): 23.7 µM
TGI (HOP-62 NSCLC): 38.1 µM
TGI (MOLT-4 leukemia): 22.4 µM
TGI (HT29 colon): 28.1 µM
TGI (SK-MEL-5 melanoma): 26.7 µM
TGI (OVCAR-3 ovarian): 15.4 µM
TGI (NCI-H522 lung): 30.8 µM
TGI (NCI-H23 lung): 41.8 µM
TGI (SK-MEL-2 melanoma): 34.2 µM
TGI (DLD-1 colon): 24.3 µM
TGI (LOX IMVI melanoma): 36.6 µM
TGI (A498 renal): 51.9 µM
TGI (SN12C renal): 73.4 µM
TGI (UACC-257 melanoma): 66.1 µM
TGI (RPMI-8226 leukemia): 19.4 µM
TGI (DMS 114 small cell lung): 34.3 µM
TGI (A549 NSCLC): 55.6 µM
TGI (OVCAR-5 ovarian): 50.9 µM
TGI (RXF 393 renal): 29.8 µM
TGI (OVCAR-8 ovarian): > 100 µM
TGI (TK-10 renal): 92.3 µM
TGI (SNB-75 CNS): 51.7 µM
TGI (HCT-15 colon): > 100 µM
TGI (HOP-92 NSCLC): 51.1 µM
TGI (SNB-19 CNS): 23.5 µM
TGI (EKVX NSCLC): > 100 µM
TGI (U251 CNS): 32.5 µM
TGI (K-562 leukemia): 28.3 µM

Cc1ccc([N+]2=NC(c3ccccc3)=NN(c3ccccc3)C2)cc1
TGI (HL-60(TB) leukemia): > 100 µM
TGI (M19-MEL melanoma): > 100 µM
TGI (NCI-H226 lung): > 100 µM
TGI (ACHN renal): > 100 µM
TGI (KM20L2 colon): > 100 µM
TGI (786-0 renal): > 100 µM
TGI (IGROV1 ovarian): > 100 µM
TGI (DMS 273 small cell lung): > 100 µM
TGI (LXFL 529 NSCLC): > 100 µM
TGI (CCRF-CEM leukemia): 79.9 µM
TGI (COLO 205 colon): > 100 µM
TGI (NCI-H460 lung): > 100 µM
TGI (HCC-2998 colon): > 100 µM
TGI (MALME-3M melanoma): > 100 µM
TGI (XF 498 CNS): > 100 µM
TGI (SF-268 CNS): > 100 µM
TGI (KM12 colon): > 100 µM
TGI (SF-295 CNS): > 100 µM
TGI (SK-MEL-28 melanoma): > 100 µM
TGI (UO-31 renal): > 100 µM
TGI (HOP-62 NSCLC): > 100 µM
TGI (OVCAR-4 ovarian): > 100 µM
TGI (MOLT-4 leukemia): > 100 µM
TGI (HT29 colon): > 100 µM
TGI (SK-MEL-5 melanoma): 73.6 µM
TGI (OVCAR-3 ovarian): > 100 µM
TGI (NCI-H23 lung): > 100 µM
TGI (DLD-1 colon): > 100 µM
TGI (LOX IMVI melanoma): > 100 µM
TGI (A498 renal): > 100 µM
TGI (SN12C renal): > 100 µM
TGI (UACC-257 melanoma): > 100 µM
TGI (RPMI-8226 leukemia): > 100 µM
TGI (DMS 114 small cell lung): > 100 µM
TGI (A549 NSCLC): > 100 µM
TGI (OVCAR-5 ovarian): > 100 µM
TGI (RXF 393 renal): > 100 µM
TGI (OVCAR-8 ovarian): > 100 µM
TGI (TK-10 renal): > 100 µM
TGI (HCT-15 colon): > 100 µM
TGI (SW-620 colon): > 100 µM
TGI (SNB-19 CNS): > 100 µM
TGI (HCT-116 colon): > 100 µM
TGI (EKVX NSCLC): > 100 µM
TGI (U251 CNS): > 100 µM
TGI (K-562 leukemia): > 100 µM
TGI (SR leukemia): > 100 µM

Oc1ccc(O)c(-n2cccn2)c1-n1cccn1
TGI (HL-60(TB) leukemia): > 10 µM
TGI (M19-MEL melanoma): > 100 µM
TGI (SNB-78 CNS): > 100 µM
TGI (ACHN renal): > 100 µM
TGI (KM20L2 colon): > 100 µM
TGI (786-0 renal): > 100 µM
TGI (SK-OV-3 ovarian): > 100 µM
TGI (IGROV1 ovarian): > 100 µM
TGI (SF-539 CNS): > 100 µM
TGI (M14 melanoma): > 100 µM
TGI (DMS 273 small cell lung): > 100 µM
TGI (LXFL 529 NSCLC): > 100 µM
TGI (UACC-62 melanoma): > 100 µM
TGI (CCRF-CEM leukemia): > 10 µM
TGI (COLO 205 colon): 90.1 µM
TGI (NCI-H460 lung): > 100 µM
TGI (CAKI-1 renal): > 100 µM
TGI (HCC-2998 colon): > 100 µM
TGI (MALME-3M melanoma): > 100 µM
TGI (XF 498 CNS): > 100 µM
TGI (SF-268 CNS): > 100 µM
TGI (KM12 colon): > 100 µM
TGI (SF-295 CNS): > 100 µM
TGI (SK-MEL-28 melanoma): > 100 µM
TGI (UO-31 renal): > 100 µM
TGI (HOP-62 NSCLC): > 100 µM
TGI (OVCAR-4 ovarian): > 100 µM
TGI (MOLT-4 leukemia): > 10 µM
TGI (HT29 colon): > 100 µM
TGI (SK-MEL-5 melanoma): > 100 µM
TGI (OVCAR-3 ovarian): > 100 µM
TGI (NCI-H522 lung): 73.1 µM
TGI (NCI-H23 lung): > 100 µM
TGI (SK-MEL-2 melanoma): > 100 µM
TGI (DLD-1 colon): > 100 µM
TGI (LOX IMVI melanoma): > 100 µM
TGI (A498 renal): > 100 µM
TGI (SN12C renal): > 100 µM
TGI (RPMI-8226 leukemia): > 100 µM
TGI (DMS 114 small cell lung): > 100 µM
TGI (A549 NSCLC): > 100 µM
TGI (OVCAR-5 ovarian): > 100 µM
TGI (RXF 393 renal): > 100 µM
TGI (OVCAR-8 ovarian): > 100 µM
TGI (TK-10 renal): > 100 µM
TGI (SNB-75 CNS): > 100 µM
TGI (HCT-15 colon): > 100 µM
TGI (HOP-92 NSCLC): > 100 µM
TGI (SW-620 colon): > 100 µM
TGI (SNB-19 CNS): > 100 µM
TGI (EKVX NSCLC): > 100 µM
TGI (U251 CNS): > 100 µM
TGI (K-562 leukemia): > 100 µM

CC1(C2CCC3(C)C(C2)C3Sc2ccccc2)OCCO1 (centres undefined)
TGI (HL-60(TB) leukemia): 29.7 µM
TGI (M19-MEL melanoma): 40.6 µM
TGI (SNB-78 CNS): > 100 µM
TGI (ACHN renal): 46.9 µM
TGI (786-0 renal): 33.3 µM
TGI (SK-OV-3 ovarian): 88.6 µM
TGI (IGROV1 ovarian): > 100 µM
TGI (SF-539 CNS): 67.3 µM
TGI (M14 melanoma): > 100 µM
TGI (DMS 273 small cell lung): 60 µM
TGI (LXFL 529 NSCLC): > 100 µM
TGI (UACC-62 melanoma): 43.1 µM
TGI (CCRF-CEM leukemia): 40.3 µM
TGI (COLO 205 colon): 35.8 µM
TGI (NCI-H460 lung): 46.5 µM
TGI (CAKI-1 renal): 51.4 µM
TGI (HCC-2998 colon): 39.2 µM
TGI (MALME-3M melanoma): 41.8 µM
TGI (XF 498 CNS): 40.7 µM
TGI (SF-268 CNS): > 100 µM
TGI (KM12 colon): 79.2 µM
TGI (SF-295 CNS): 46.5 µM
TGI (SK-MEL-28 melanoma): 63.6 µM
TGI (UO-31 renal): 31.4 µM
TGI (HOP-62 NSCLC): 45.8 µM
TGI (OVCAR-4 ovarian): 81.7 µM
TGI (MOLT-4 leukemia): 38.4 µM
TGI (HT29 colon): 41.4 µM
TGI (SK-MEL-5 melanoma): 34 µM
TGI (OVCAR-3 ovarian): 30 µM
TGI (NCI-H522 lung): 40.9 µM
TGI (NCI-H23 lung): 66.3 µM
TGI (SK-MEL-2 melanoma): 34.3 µM
TGI (DLD-1 colon): 92.2 µM
TGI (LOX IMVI melanoma): 49.6 µM
TGI (A498 renal): 36.4 µM
TGI (SN12C renal): 46.8 µM
TGI (UACC-257 melanoma): 41.5 µM
TGI (RPMI-8226 leukemia): 32.7 µM
TGI (DMS 114 small cell lung): 47.1 µM
TGI (A549 NSCLC): 68 µM
TGI (OVCAR-5 ovarian): 49.9 µM
TGI (RXF 393 renal): 32.4 µM
TGI (OVCAR-8 ovarian): > 100 µM
TGI (TK-10 renal): > 100 µM
TGI (SNB-75 CNS): > 100 µM
TGI (HCT-15 colon): > 100 µM
TGI (HOP-92 NSCLC): 56 µM
TGI (SW-620 colon): 50.1 µM
TGI (SNB-19 CNS): 82.6 µM
TGI (HCT-116 colon): 34 µM
TGI (EKVX NSCLC): 66.2 µM
TGI (U251 CNS): 42.8 µM
TGI (K-562 leukemia): 43.7 µM
